Results: publication PMC6549035, “CUMYL-4CN-BINACA Is an Efficacious and Potent Pro-Convulsant Synthetic Cannabinoid Receptor Agonist” (Frontiers in Pharmacology, 2019)

Experiments:
[1] = molecular target: T1, human CB2 receptor (hCB2) (Homo sapiens, UniProt P34972); assay: [3H]-CP […] competition radioligand binding on HEK293 membranes
T1 construct: gene CNR2; 3-HA tagged CB2 receptor

[2] = molecular target: T2, human CB1 receptor (hCB1) (Homo sapiens, UniProt P21554); assay: as above
T2 construct: gene CNR1
T2 sequence (P21554 whole entry): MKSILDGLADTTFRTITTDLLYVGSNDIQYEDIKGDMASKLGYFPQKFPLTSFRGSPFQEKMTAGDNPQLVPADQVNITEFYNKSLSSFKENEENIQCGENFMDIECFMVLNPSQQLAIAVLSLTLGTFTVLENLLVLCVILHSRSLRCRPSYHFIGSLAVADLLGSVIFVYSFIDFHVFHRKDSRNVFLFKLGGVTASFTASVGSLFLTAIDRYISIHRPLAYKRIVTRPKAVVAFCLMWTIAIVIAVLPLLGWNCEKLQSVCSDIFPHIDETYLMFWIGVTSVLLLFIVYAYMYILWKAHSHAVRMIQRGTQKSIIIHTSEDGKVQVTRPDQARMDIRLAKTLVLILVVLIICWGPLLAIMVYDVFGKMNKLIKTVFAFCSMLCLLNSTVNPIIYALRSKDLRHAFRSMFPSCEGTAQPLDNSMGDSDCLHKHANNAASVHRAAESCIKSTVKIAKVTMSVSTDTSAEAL

T1 sequence (P34972 whole entry): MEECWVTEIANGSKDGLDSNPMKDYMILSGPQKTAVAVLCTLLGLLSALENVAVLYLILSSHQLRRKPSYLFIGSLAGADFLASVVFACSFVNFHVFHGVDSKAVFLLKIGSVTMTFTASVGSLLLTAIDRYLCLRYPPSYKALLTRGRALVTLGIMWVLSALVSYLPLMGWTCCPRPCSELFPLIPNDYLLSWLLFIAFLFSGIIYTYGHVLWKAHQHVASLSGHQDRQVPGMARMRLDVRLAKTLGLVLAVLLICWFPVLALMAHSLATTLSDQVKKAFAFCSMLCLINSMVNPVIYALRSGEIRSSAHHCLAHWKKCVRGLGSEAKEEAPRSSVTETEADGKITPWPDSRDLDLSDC

With `CC(C)(NC(=O)c1nn(CCCCC#N)c2ccccc12)c1ccccc1` [compound 1, 1-(4-cyanobutyl)-N-(2-phenylpropan-2-yl)indazole-3-carboxamide] the Ki [1] was 14.7 nM and the Ki [2] was 2.6 nM.
